We go through 5 compounds from patent US20050272726A1, “Novel medicaments for the treatment of respiratory diseases” (Boehringer Ingelheim International GmbH, priority 2004, published 2005).

Counter-ions that a name gives are not always drawn.

By melting point is commonly meant the temperature, or range, at which the solid turns liquid. Turning to `CC(C)(Cc1ccc(F)cc1F)NCC(O)c1cc(O)cc2c1OCC(=O)N2` (centres unmarked) (as salt: hydrochloride), the melting point lay in the range of 279 to 280 °C.

In the case of `Cc1cc(CC(C)(C)NCC(O)c2cc(O)cc3c2OCC(=O)N3)ccc1F` (centres unmarked) (as salt: hydrochloride) [Example 8, 8-{2-[2-(4-Fluoro-3-methyl-phenyl)-1,1-dimethyl-ethylamino]-1-hydroxy-ethyl}-6-hydroxy-4H-benzo[1,4]oxazin-3-one], the melting point was 278 to 280 °C. The compound `Cc1cc(F)ccc1CC(C)(C)NCC(O)c1cc(O)cc2c1OCC(=O)N2` (centres unmarked) (as salt: hydrochloride) [Example 9, 8-{2-[2-(4-fluoro-2-methyl-phenyl)-1,1-dimethyl-ethylamino]-1-hydroxy-ethyl}-6-hydroxy-4H-benzo[1,4]oxazin-3-one] displayed a melting point of 278 to 280 °C. `Cc1cc(C)cc(CC(C)(C)NCC(O)c2cc(O)cc3c2OCC(=O)N3)c1` (centres unmarked) (as salt: hydrochloride) [Example 13, 8-{2-[2-(3,5-dimethyl-phenyl)-1,1-dimethyl-ethylamino]-1-hydroxy-ethyl}-6-hydroxy-4H-benzo[1,4]oxazin-3-one] returned a melting point of 235 to 238 °C.

Take `CC(C)(Cc1ccc(OCCCC(=O)O)cc1)NCC(O)c1cc(O)cc2c1OCC(=O)N2` (centres unmarked) [Example 14, 4-(4-{2-[2-hydroxy-2-(6-hydroxy-3-oxo-3,4-dihydro-2H-benzo[1,4]oxazin-8-yl)-ethylamino]-2-methyl-propyl}-phenoxy)-butyric acid]: the melting point fell in the range of 201 to 204 °C.
